These molecules were tested on H1N1 (influenza A/New Caledonia/20/99) (assay: microbe, parasite or virus in culture). Details: not given.
Assay type: cell-based
Molecule “2-[[6-tert-butoxycarbonyl-3-[(4-chlorophenyl)carbamoyl]-5,7-dihydro-4H-thieno[2,3-c]pyridin-2-yl]carbamoyl]cyclohexanecarboxylic acid [Compound 91]” has an IC50 of 10 µM.

Same assay, conditions: Influenza A virus, H1N1, A549, 48 h
CC(C)(C)C1CCc2c(sc(NC(=O)[C@H]3CCCC[C@H]3C(=O)O)c2C(=O)Nc2ccc(Cl)cc2)C1 (stereo in doubt) [Compound 79, 2-[[6-tert-butyl-3-[(4-chlorophenyl)carbamoyl]-4,5,6,7-tetrahydrobenzothiophen-2-yl]carbamoyl]cyclohexanecarboxylic acid] showed an IC50 of 1.85 µM. Cc1nccn1CC(=O)Nc1sc2c(c1C(=O)Nc1ccc(Cl)cc1)CCCC2 [Compound 75, N-(4-Chlorophenyl)-2-[[2-(2-methylimidazol-1-yl)acetyl]amino]-4,5,6,7-tetrahydrobenzothiophene-3-carboxamide] showed an IC50 of 17.1 µM. In the case of O=C(Nc1ccc2c(c1)OCO2)c1c(NC(=O)C2CCCCC2C(=O)O)sc2c1CCC2 (stereo not shown) [Compound 3, 2-[[3-(1,3-Benzodioxol-5-ylcarbamoyl)-5,6-dihydro-4H-cyclopenta[b]thiophen-2-yl]carbamoyl]cyclohexanecarboxylic acid], the IC50 is reported as 10.3 µM. Work on O=C(Nc1ccc(Cl)cc1)c1c(NC(=O)C2CCCCC2C(=O)O)sc2c1CCCC2 (stereo not drawn) [Compound 61, 2-[[3-[(4-Chlorophenyl)carbamoyl]-4,5,6,7-tetrahydrobenzothiophen-2-yl]carbamoyl]cyclohexane-cis-carboxylic acid] yielded an IC50 of 8.59 µM. For Cc1ccc(NC(=O)c2c(NC(=O)C3CCCCC3C(=O)O)sc3c2CCC3)cc1C (stereo not shown) [Compound 1, 2-[[3-[(3,4-Dimethylphenyl)carbamoyl]-5,6-dihydro-4H-cyclopenta[b]thiophen-2-yl]carbamoyl]cyclohexanecarboxylic acid], the IC50 was 7.78 µM. Work on O=C(Nc1ncc(Cl)s1)c1c(NC(=O)C2CCCCC2C(=O)O)sc2c1CCC2 (stereo not shown) [Compound 29, 2-[[3-[(5-Chlorothiazol-2-yl)carbamoyl]-5,6-dihydro-4H-cyclopenta[b]thiophen-2-yl]carbamoyl]cyclohexanecarboxylic acid] yielded an IC50 of 6.78 µM. O=C(Nc1ccccc1)c1c(NC(=O)C2CCCCC2C(=O)O)sc2c1CCC2 (stereo not shown) [Compound 74, 2-[[3-(Phenylcarbamoyl)-5,6-dihydro-4H-cyclopenta[b]thiophen-2-yl]carbamoyl]cyclohexanecarboxylic acid] was tested, and the IC50 was 12.4 µM. CS(=O)(=O)N1CCCCC1C(=O)Nc1sc2c(c1C(=O)Nc1ccc(Cl)cc1)CCC2 (stereo not shown) [Compound 100, N-[3-[(4-chlorophenyl)carbamoyl]-5,6-dihydro-4H-cyclopenta[b]thiophen-2-yl]-1-methylsulfonyl-piperidine-2-carboxamide] showed an IC50 of 16.6 µM. Work on Cc1ccc(NC(=O)c2c(NC(=O)C3CCCCC3C(=O)O)sc3c2CCC3)cc1Cl (stereo not shown) [Compound 14, 2-[[3-[(3-chloro-4-methyl-phenyl)carbamoyl]-5,6-dihydro-4H-cyclopenta[b]thiophen-2-yl]carbamoyl]cyclohexanecarboxylic acid] yielded an IC50 of 4.78 µM. For O=C1CC(C(=O)Nc2sc3c(c2C(=O)Nc2ccc(Cl)cc2)CCC3)CCN1 (stereo not shown) [Compound 101, N-[3-[(4-chlorophenyl)carbamoyl]-5,6-dihydro-4H-cyclopenta[b]thiophen-2-yl]-2-oxo-piperidine-4-carboxamide], the IC50 was 19 µM. CN(C(=O)c1c(NC(=O)C2CCCCC2C(=O)O)sc2c1CCC2)c1ccc(Cl)cc1 (stereo not shown) [Compound 34, 2-[[3-[(4-Chlorophenyl)-methyl-carbamoyl]-5,6-dihydro-4H-cyclopenta[b]thiophen-2-yl]carbamoyl]cyclohexanecarboxylic acid] was tested, and the IC50 was 30.4 µM. Work on O=C(O)CCC(=O)Nc1sc2c(c1C(=O)Nc1ccc(Cl)cc1)CCC2 [Compound 50, 4-[[3-[(4-Chlorophenyl)carbamoyl]-5,6-dihydro-4H-cyclopenta[b]thiophen-2-yl]amino]-4-oxo-butanoic acid] yielded an IC50 of 33.2 µM. CC(C)c1ccc(NC(=O)c2c(NC(=O)C3CCCCC3C(=O)O)sc3c2CCC3)cc1 (stereo not shown) [Compound 25, 2-[[3-[(4-Isopropylphenyl)carbamoyl]-5,6-dihydro-4H-cyclopenta[b]thiophen-2-yl]carbamoyl]cyclohexanecarboxylic acid] gave an IC50 of 4.68 µM. In the case of O=C(O)C1CCCCC1C(=O)Nc1sc2c(c1C(=O)N1CCN(c3ccc(Cl)cc3)CC1)CCC2 (stereo not shown) [Compound 36, 2-[[3-[4-(4-chlorophenyl)piperazine-1-carbonyl]-5,6-dihydro-4H-cyclopenta[b]thiophen-2-yl]carbamoyl]cyclohexanecarboxylic acid], the IC50 is reported as 21 µM. O=C(Nc1ccc(N2CCOCC2)cc1)c1c(NC(=O)C2CCCCC2C(=O)O)sc2c1CCC2 (stereo not shown) [Compound 15, 2-[[3-[(4-Morpholinophenyl)carbamoyl]-5,6-dihydro-4H-cyclopenta[b]thiophen-2-yl]carbamoyl]cyclohexanecarboxylic acid] gave an IC50 of 11.2 µM. O=C(Nc1ccc(Cl)cc1)c1c(NC(=O)C2CCN2)sc2c1CCC2 (stereo not shown) [Compound 96, N-[3-[(4-chlorophenyl)carbamoyl]-5,6-dihydro-4H-cyclopenta[b]thiophen-2-yl]azetidine-2-carboxamide] gave an IC50 of 14.1 µM. CCc1c(C)sc(NC(=O)C2CCCCC2C(=O)O)c1C(=O)Nc1ccc(Cl)cc1 (stereo not shown) [Compound 59, 2-[[3-[(4-Chlorophenyl)carbamoyl]-4-ethyl-5-methyl-2-thienyl]carbamoyl]cyclohexanecarboxylic acid] was tested, and the IC50 was 53.5 µM. Cc1cccc(NC(=O)c2c(NC(=O)C3CCCCC3C(=O)O)sc3c2CCC3)c1 (stereo not shown) [Compound 58, 2-[[3-(m-Tolylcarbamoyl)-5,6-dihydro-4H-cyclopenta[b]thiophen-2-yl]carbamoyl]cyclohexanecarboxylic acid] showed an IC50 of 27.6 µM. For CS(=O)(=O)c1ccc(NC(=O)c2c(NC(=O)C3CCCCC3C(=O)O)sc3c2CCC3)cc1 (stereo not shown) [Compound 31, 2-[[3-[(4-Methylsulfonylphenyl)carbamoyl]-5,6-dihydro-4H-cyclopenta[b]thiophen-2-yl]carbamoyl]cyclohexanecarboxylic acid], the IC50 was 27.3 µM. Work on O=C(NCc1ccc(Cl)cc1)c1c(NC(=O)C2CCCCC2C(=O)O)sc2c1CCC2 (stereo not shown) [Compound 5, 2-[[3-[(4-Chlorophenyl)methylcarbamoyl]-5,6-dihydro-4H-cyclopenta[b]thiophen-2-yl]carbamoyl]cyclohexanecarboxylic acid] yielded an IC50 of 10.7 µM. In the case of O=C(Nc1ccc(Cl)cc1)c1c(NC(=O)C2CCCCC2C(=O)O)sc2c1CCOC2 (stereo not shown) [Compound 37, 2-[[3-[(4-Chlorophenyl)carbamoyl]-5,7-dihydro-4H-thieno[2,3-c]pyran-2-yl]carbamoyl]cyclohexanecarboxylic acid], the IC50 is reported as 43.4 µM. Work on O=C(NC1CCc2ccccc21)c1c(NC(=O)C2CCCCC2C(=O)O)sc2c1CCC2 (stereo not shown) [Compound 23, 2-[[3-(Indan-1-ylcarbamoyl)-5,6-dihydro-4H-cyclopenta[b]thiophen-2-yl]carbamoyl]cyclohexanecarboxylic acid] yielded an IC50 of 6.28 µM. For O=C(Nc1ccc(Cl)cc1)c1c(NC(=O)C2CCCCC2C(=O)O)sc2c1CCS2 (stereo not shown) [Compound 40, 2-[[4-[(4-Chlorophenyl)carbamoyl]-2,3-dihydrothieno[2,3-b]thiophen-5-yl]carbamoyl] cyclohexanecarboxylic acid], the IC50 was 7.35 µM. O=C(Nc1ccc(Cl)cc1)c1c(NC(=O)C2CCCC2C(=O)O)sc2c1CCC2 (stereo not shown) [Compound 46, 2-[[3-[(4-Chlorophenyl)carbamoyl]-5,6-dihydro-4H-cyclopenta[b]thiophen-2-yl]carbamoyl]cyclopentanecarboxylic acid] showed an IC50 of 17.4 µM.

Source: patent US11279683B2, “Thiophene derivatives as antiviral agents” (ENYO PHARMA, priority 2016, dated 2022)
